Experimental data taken from ChEMBL document CHEMBL1201862, “PubChem BioAssay data set” (2004).
Activity calls are given as the source filed them.

Tests used:
[1] = target: T1, Mucolipin-3 (Homo sapiens, UniProt Q8TDD5); experiment: Dose response cell-based high-throughput screening assay for agonists of the transient receptor potential channel ML3 (TRPML3). [Related pubchem assays: 1526, 1424, 1448 ]; format: functional
T1 sequence (Q8TDD5 whole entry): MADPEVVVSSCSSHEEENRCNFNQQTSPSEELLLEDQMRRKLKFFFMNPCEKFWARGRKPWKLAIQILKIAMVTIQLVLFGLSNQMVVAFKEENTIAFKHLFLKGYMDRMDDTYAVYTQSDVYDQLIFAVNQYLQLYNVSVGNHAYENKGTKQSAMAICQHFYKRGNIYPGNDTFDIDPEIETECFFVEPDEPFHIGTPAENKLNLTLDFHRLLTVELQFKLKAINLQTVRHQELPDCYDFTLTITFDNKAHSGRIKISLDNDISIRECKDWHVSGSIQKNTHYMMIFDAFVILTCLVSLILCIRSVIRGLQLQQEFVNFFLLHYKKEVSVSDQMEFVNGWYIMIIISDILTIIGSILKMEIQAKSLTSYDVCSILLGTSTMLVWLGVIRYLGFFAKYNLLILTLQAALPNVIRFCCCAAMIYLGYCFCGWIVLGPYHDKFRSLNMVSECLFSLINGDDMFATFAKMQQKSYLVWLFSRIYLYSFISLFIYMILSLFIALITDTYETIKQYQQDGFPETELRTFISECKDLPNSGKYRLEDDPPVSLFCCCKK

[2] = target: Ion channel NompC (Danio rerio, UniProt Q7T1G6); experiment: Fluorescence counterscreen assay for TRPML3 agonists: dose response cell-based high-throughput screening assay to identify agonists of the transient receptor potential channel N1 (TRPN1). [Related pubchem assays: 1526, 1424, 1448 ]; format: functional
[3] = ADAM10 inhibitors, peptide cleavage, dose response, biochemical, QFRET (AID 743254);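 also: ADAM10 enzyme with the DM2 quenched FRET peptide as substrate; EDANS fluorescence gain as the protease cuts the substrate; inhibitor potency against ADAM10 proteolytic activity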
[4] = target: T2, Disintegrin and metalloproteinase domain-containing protein 17 (Homo sapiens, UniProt P78536); experiment: ADAM17 protease inhibitors, dose response, counter-screen for ADAM10 exosite inhibitor project, biochemical, quenched FRET substrate (AID 743253)
[5] = target: NAD-dependent protein deacylase sirtuin-5, mitochondrial (Homo sapiens, UniProt Q9NXA8); experiment: SIRT5 desuccinylase inhibitors, dose response, biochemical, fluorescence imaging, cherry-pick, set 5 (AID 720591);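 also: desuccinylation of succinyl peptide AMC substrate read as fluorescence after trypsin release; potency of inhibitors that lower fluorescence and may act on trypsin instead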
[6] = target: T3, Tyrosine-protein phosphatase non-receptor type 7 (Homo sapiens, UniProt P35236); experiment: inhibitors of human HePTP phosphatase, […], biochemical, absorbance, leukemia target (AID 521); format: functional
T3 sequence (P35236 whole entry): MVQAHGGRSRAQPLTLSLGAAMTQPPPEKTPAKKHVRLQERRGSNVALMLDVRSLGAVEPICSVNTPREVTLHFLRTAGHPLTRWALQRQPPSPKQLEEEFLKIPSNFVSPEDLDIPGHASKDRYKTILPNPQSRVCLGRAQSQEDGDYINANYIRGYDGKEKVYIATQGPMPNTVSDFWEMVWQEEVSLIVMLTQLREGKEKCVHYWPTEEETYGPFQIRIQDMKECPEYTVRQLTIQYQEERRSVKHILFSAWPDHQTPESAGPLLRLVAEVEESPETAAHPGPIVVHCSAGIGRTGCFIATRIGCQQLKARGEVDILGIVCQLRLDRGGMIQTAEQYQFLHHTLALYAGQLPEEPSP

[7] = A Cell Based Secondary Assay To Explore Cytotoxicity of Compounds that Sensitize Mycobacterium Tuberculosis to Beta-Lactam Antibiotics.; format: functional
[8] = target: T4, Heat shock factor protein 1 (Mus musculus, UniProt P38532); experiment: inhibition of MG132-induced HSE-luciferase signal, confirmation, cell-based, NIH3T3, luminescence, dose retest (AID 2382); format: functional;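 also: NIH3T3 fibroblasts with HSF1-driven luciferase reporter stressed by proteasome inhibitor MG132; luminescence from HSF1-driven luciferase expression after 8 hours of MG132 stress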
T4 sequence (P38532 whole entry): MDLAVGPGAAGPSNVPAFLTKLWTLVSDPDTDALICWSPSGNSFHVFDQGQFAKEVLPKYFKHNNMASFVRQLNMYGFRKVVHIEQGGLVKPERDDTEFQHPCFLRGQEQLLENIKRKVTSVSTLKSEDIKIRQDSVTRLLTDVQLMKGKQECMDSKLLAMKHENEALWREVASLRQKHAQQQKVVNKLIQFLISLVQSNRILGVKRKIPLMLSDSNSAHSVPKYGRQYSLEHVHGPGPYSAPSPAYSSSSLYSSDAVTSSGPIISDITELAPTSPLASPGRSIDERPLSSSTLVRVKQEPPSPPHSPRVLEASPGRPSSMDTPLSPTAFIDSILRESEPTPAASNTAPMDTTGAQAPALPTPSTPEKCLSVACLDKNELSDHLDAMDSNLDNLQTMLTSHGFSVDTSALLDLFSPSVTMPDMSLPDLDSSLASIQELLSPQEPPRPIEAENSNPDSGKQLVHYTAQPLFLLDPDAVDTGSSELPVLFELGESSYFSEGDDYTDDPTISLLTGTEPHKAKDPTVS

[9] = cells
[10] = target: Peroxisome proliferator-activated receptor gamma/Nuclear receptor coactivator 1 (Homo sapiens, UniProt P37231); format: functional;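 also: agonist potency as compounds enhance coactivator SRC-1 recruitment to PPARgamma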
[11] = target: Peroxisome proliferator-activated receptor gamma/Nuclear receptor coactivator 2 (Homo sapiens, UniProt P37231); format: functional;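 also: agonist potency for raising coactivator recruitment to the receptor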
[12] = target: Peroxisome proliferator-activated receptor gamma/Nuclear receptor coactivator 3 (Homo sapiens, UniProt P37231); format: functional;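 also: agonist potency for raising coactivator recruitment to the receptor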
[13] = target: T5, fMet-Leu-Phe receptor (Homo sapiens, UniProt P21462); experiment: FPR ligands, dose response (AID 519); format: functional
T5 sequence (P21462 whole entry): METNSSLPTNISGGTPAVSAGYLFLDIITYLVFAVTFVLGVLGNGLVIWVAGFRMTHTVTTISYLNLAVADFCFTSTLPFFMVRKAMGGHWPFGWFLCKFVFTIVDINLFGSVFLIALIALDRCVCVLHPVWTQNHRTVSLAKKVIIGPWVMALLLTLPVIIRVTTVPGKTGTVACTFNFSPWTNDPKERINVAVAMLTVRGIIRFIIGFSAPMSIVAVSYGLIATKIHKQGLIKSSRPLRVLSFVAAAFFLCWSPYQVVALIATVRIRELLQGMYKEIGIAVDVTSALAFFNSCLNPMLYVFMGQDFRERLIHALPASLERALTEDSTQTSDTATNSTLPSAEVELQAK

[14] = target: T6, Voltage-gated N-type calcium channel alpha-1B subunit/Amyloid beta A4 precursor protein-binding family A member 1 (Homo sapiens, UniProt Q00975+Q02410); format: protein assay
[15] = target: T6, Voltage-gated N-type calcium channel alpha-1B subunit/Amyloid beta A4 precursor protein-binding family A member 1; format: protein assay; remark: listed apart in the source
[16] = target: T7, Lysosomal acid glucosylceramidase (Homo sapiens, UniProt P04062); experiment: Dose response cell-based high throughput screening assay to identify enhancers of beta-glucosidase activity. [Related pubchem assays: 784 ]; format: functional
T7 sequence (P04062 whole entry): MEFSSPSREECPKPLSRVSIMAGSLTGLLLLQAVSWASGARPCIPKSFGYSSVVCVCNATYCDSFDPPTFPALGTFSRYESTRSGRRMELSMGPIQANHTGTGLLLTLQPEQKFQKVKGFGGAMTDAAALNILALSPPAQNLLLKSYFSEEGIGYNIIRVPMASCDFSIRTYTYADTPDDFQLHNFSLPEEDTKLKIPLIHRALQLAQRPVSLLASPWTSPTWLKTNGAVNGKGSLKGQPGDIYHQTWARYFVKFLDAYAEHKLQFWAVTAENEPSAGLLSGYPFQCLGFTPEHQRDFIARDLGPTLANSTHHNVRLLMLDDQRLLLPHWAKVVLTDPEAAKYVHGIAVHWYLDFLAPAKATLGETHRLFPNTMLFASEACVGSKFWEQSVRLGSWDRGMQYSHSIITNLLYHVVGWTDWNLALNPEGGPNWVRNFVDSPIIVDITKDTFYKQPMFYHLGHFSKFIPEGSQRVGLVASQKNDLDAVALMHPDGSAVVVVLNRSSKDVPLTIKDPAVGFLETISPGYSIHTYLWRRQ

[17] = HEp-2 cell cytotoxicity, dose response, cytotoxicity control for RSV inhibitor project, HTS (AID 2410); format: functional; conditions: human respiratory syncytial virus
[18] = target: T8, COUP transcription factor 2 (Homo sapiens, UniProt P24468); experiment: Luminescence-based cell-based high throughput dose response assay to identify inhibitors of COUP-TFII (NR2F2).; format: functional;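 also: HEK293 cells transiently cotransfected with COUP-TFII expression vector and reporter; luciferase reporter luminescence driven by COUP-TFII from the pX2-168 reporter plasmid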
T8 sequence (P24468 whole entry): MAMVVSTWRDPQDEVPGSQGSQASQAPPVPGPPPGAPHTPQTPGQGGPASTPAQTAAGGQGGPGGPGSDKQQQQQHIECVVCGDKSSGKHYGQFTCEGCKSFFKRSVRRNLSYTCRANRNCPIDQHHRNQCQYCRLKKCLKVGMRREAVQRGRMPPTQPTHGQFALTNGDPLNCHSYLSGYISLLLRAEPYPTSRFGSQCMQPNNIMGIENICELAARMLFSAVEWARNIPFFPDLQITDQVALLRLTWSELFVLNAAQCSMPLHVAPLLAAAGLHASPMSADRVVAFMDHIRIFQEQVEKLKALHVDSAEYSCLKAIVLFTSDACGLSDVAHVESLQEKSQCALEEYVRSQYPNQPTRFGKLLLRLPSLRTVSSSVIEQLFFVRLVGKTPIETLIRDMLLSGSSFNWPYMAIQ

[19] = target: Heat shock protein HSP 90-alpha (Homo sapiens, UniProt P07900); format: functional, organism-based
[20] = tested on: Vero; experiment: Vero cell cytotoxicity, cytotoxicity control for flavivirus capping enzyme inhibitors (AID 588742); format: functional; conditions: Chlorocebus sabaeus
[21] = target: Protein-tyrosine kinase 2-beta (Homo sapiens, UniProt Q14289);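 also: potency of inhibitors of PYK2 kinase phosphorylation of poly-GT substrate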
[22] = ADAM10 protease inhibitors, dose response, selectivity assay for ADAM17 exosite inhibitor project, biochemical, FRET peptide substrate, recombinant human ADAM10 (AID 743259);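 also: ADAM10 enzyme cleaving a FRET peptide substrate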
[23] = target: T2, Disintegrin and metalloproteinase domain-containing protein 17; experiment: exosite inhibitors of ADAM17, dose response, biochemical (AID 743260)
[24] = P. falciparum Dd2 growth inhibitors, dose response, SYBR Green, dry powder samples, set 9 (AID 1159568); format: functional, cell-based

Chain of Ion channel NompC (Q7T1G6 whole entry): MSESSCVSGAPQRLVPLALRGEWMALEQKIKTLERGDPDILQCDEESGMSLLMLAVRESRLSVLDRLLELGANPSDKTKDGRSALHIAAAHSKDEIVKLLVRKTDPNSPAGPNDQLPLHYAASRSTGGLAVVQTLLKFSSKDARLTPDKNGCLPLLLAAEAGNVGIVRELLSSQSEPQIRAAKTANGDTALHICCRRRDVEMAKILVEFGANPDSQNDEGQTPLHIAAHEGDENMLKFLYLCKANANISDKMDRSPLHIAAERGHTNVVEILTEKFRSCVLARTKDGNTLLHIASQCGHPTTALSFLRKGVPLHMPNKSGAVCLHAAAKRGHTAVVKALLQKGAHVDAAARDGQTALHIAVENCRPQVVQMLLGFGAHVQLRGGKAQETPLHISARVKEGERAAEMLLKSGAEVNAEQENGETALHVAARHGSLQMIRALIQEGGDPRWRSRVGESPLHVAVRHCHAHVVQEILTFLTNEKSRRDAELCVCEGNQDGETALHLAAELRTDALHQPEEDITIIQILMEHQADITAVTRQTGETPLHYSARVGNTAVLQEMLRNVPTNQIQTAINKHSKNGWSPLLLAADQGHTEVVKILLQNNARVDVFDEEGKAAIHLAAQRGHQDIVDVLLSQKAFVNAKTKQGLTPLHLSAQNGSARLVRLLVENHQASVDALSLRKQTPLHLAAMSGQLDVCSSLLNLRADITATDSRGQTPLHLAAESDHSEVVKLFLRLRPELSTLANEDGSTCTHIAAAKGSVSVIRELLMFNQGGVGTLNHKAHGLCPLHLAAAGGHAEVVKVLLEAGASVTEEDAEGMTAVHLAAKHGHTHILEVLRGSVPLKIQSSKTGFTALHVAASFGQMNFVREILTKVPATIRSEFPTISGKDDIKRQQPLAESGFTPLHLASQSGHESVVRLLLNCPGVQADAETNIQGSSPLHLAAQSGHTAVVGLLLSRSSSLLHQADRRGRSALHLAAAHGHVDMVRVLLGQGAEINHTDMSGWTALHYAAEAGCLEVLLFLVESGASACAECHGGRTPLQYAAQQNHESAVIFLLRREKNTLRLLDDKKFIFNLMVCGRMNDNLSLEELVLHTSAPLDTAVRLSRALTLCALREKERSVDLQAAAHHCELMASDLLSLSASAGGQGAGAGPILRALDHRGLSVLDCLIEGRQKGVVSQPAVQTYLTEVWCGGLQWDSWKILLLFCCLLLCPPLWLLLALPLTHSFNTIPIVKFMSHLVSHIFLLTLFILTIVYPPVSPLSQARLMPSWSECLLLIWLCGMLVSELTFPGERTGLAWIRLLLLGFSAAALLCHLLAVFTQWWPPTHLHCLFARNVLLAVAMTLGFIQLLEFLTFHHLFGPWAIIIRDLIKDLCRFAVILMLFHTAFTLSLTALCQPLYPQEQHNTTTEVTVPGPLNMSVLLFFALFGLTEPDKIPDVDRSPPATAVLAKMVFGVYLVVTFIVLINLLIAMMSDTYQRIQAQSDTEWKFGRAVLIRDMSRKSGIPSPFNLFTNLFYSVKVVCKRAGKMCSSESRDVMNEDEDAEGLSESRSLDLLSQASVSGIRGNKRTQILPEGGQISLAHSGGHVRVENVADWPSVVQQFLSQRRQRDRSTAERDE
Chain of NAD-dependent protein deacylase sirtuin-5, mitochondrial (Q9NXA8 whole entry): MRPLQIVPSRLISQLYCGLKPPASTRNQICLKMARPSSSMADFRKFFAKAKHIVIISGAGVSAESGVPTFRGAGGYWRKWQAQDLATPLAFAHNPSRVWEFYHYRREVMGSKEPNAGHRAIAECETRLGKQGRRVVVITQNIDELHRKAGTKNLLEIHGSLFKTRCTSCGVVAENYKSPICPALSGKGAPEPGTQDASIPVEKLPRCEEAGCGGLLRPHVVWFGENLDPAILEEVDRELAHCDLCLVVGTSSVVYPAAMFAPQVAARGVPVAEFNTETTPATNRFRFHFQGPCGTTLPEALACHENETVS
T2 sequence (P78536 whole entry, the tested form may be a part): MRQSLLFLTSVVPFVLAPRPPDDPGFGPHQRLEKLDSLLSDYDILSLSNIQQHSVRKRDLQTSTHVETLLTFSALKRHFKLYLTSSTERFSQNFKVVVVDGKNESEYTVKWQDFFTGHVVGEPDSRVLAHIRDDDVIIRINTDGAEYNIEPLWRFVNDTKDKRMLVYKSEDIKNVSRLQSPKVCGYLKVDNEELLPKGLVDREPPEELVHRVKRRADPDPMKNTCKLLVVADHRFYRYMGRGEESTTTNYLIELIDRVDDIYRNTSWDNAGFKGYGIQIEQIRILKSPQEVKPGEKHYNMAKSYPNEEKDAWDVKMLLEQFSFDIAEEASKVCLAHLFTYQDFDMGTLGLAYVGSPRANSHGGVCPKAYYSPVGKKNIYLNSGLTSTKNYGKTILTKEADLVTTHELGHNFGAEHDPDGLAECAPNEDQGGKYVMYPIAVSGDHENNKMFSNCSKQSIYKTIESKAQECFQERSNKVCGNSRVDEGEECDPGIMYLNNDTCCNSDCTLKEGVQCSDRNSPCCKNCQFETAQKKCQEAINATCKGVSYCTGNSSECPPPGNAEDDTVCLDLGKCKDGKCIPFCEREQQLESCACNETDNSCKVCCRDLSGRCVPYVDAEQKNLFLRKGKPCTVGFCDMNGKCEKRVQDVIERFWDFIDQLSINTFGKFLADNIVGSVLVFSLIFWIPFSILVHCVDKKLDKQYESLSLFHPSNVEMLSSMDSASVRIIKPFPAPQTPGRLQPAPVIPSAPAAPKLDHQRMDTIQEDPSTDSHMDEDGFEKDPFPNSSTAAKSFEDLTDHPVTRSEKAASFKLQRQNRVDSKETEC
Chain of Protein-tyrosine kinase 2-beta (Q14289 whole entry): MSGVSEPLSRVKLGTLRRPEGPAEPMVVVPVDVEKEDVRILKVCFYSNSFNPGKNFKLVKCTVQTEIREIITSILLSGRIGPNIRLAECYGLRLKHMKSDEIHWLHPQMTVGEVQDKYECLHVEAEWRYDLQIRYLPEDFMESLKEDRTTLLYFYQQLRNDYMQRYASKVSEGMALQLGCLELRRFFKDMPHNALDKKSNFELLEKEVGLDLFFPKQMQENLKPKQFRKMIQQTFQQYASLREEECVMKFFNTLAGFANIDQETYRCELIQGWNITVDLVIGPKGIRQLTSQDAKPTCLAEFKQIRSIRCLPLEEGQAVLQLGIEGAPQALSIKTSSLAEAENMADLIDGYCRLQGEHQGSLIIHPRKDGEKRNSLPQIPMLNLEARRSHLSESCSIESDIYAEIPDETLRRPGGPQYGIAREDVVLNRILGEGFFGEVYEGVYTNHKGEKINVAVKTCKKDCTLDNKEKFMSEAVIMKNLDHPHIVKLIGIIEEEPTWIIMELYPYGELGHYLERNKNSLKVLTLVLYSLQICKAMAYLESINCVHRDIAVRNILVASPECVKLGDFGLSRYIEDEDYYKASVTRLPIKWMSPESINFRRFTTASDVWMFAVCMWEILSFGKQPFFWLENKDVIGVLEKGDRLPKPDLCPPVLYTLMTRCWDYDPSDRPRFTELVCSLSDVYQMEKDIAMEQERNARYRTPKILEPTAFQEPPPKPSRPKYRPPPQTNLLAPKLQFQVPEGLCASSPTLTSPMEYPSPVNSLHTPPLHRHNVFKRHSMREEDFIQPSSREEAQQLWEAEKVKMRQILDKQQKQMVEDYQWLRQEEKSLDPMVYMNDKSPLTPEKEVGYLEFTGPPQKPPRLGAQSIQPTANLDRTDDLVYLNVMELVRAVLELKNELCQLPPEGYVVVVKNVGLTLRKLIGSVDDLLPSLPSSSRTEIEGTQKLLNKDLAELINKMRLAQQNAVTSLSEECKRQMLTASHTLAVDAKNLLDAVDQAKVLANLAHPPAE

O=S(=O)(Nc1ccccc1N1CCCCC1)c1ccc(F)cc1
EC50 [1]: 3.27 µM (active) | EC50 [2]: > 29.9 µM (not active)

COc1cccc(C(=O)NNC(=O)C(=O)Nc2ccc(C)c(Cl)c2)c1
IC50 [3]: 8.71 µM (active) | IC50 [4]: > 69.5 µM (inactive)

COc1ccc(C(=O)C2=C(O)C(=O)N(CCCN3CCOCC3)C2c2ccc(OC)cc2)cc1 (centres undefined)
AC50 [5]: > 30 µM (inactive)

CC1(C)CC(=O)c2cnc(NC(=O)c3ccco3)nc2C1
IC50 [6]: > 100 µM (not active)

CCN1C(=O)[C@@H]2[C@@H](c3ccc(-c4ccc(Cl)c(Cl)c4)c(OC)c3)N3CCC[C@@]3(C(=O)OC)[C@@H]2C1=O
CC50 [7]: 30.4 µM (active)

Cc1cc(C(C)(C)C)oc1C(=O)N(CC(=O)NC1CCCC1)c1c(C)cccc1C
EC50 [8]: > 195 µM (not active) | EC50 [1]: 2.54 µM (active) | EC50 [2]: > 29.9 µM (not active)

CC(C)NC(=O)c1cccc(Br)c1
AC50 [5]: > 30 µM (inactive)

COC(=O)c1ccc(NC2c3ncccc3C(=O)N2Cc2cccs2)cc1 (centres undefined)
IC50 [9]: 5.98 µM (active)

CCOc1cc(S(=O)(=O)N2CCCCCC2)ccc1F
EC50 [1]: > 29.9 µM (not active) | EC50 [2]: > 29.9 µM (not active)

COCc1c(C(=O)OC)nnn1-c1ccccc1
EC50 [10]: > 79.4 µM (not active) | EC50 [11]: > 79.4 µM (not active) | EC50 [12]: > 79.4 µM (not active)

Cc1cccc(Nc2ccccc2C(=O)NCc2ccco2)c1C
Ki [13]: > 66.7 µM (inactive)

COc1ccc(CC(=O)Nc2ccc(-c3nnc(-c4ccc(C)cc4)o3)cc2)cc1
IC50 [14]: > 50 µM (inactive) | IC50 [6]: > 100 µM (not active) | IC50 [15]: 14.4 µM (active) | Ki [13]: > 66.7 µM (inactive)

CNS(=O)(=O)c1ccc(OC)c(-c2nnc3c4ccccc4c(C)nn23)c1
IC50 [9]: 26.5 µM (active)

Cc1ccc(S(=O)(=O)Nc2cc(C(=O)O)ccc2N2CCCCC2)cc1
EC50 [16]: > 50 µM (not active)

COC(=O)C1=C(c2ccc(F)cc2F)C[C@@H]2CC[C@H]1N2C(=O)N1CCC(C)CC1
CC50 [17]: 34.2 µM (active) | IC50 [9]: 41.2 µM (active)

Cc1ccccc1NC(=NOCc1ccc(Cl)cc1Cl)c1nonc1N
IC50 [4]: > 69.5 µM (inactive)

CC(C)(C)OC(=O)N1CCC[C@H]1c1nnc(SCc2cccc(Cl)c2)o1
AC50 [5]: > 30 µM (inactive)

O=C(/C=C/c1ccc([N+](=O)[O-])cc1)c1ccccc(=O)c1O
IC50 [18]: 9.51 µM (active) | AC50 [19]: 1.54 µM (active) | IC50 [3]: 8.35 µM (active) | CC50 [20]: 1.87 µM (active) | IC50 [4]: 11.8 µM (inactive)

CO/C(O)=C1\C(C)=NC2=C(C(=O)CC(c3cccs3)C2)C1c1ccsc1 (centres undefined)
IC50 [21]: > 69.5 µM (not active)

COC(=O)[C@]12C[C@H](CC(=O)NCCCCc3ccccc3)C(=O)N(Cc3cccc4ccccc34)C1=C[C@H](C(C)C)O[C@@H]2C1CC1
IC50 [22]: > 7.72 µM (active) | IC50 [23]: > 69.5 µM (inactive)

Cc1ccnn1CC(=O)N/N=C/c1ccc([N+](=O)[O-])s1
CC50 [7]: 36 µM (active)

C[C@H]1CCCCO[C@@H](CN(C)S(=O)(=O)c2ccc(F)cc2)[C@@H](C)CN([C@@H](C)CO)C(=O)c2cc(N(C)C)ccc2O1
AC50 [24]: 2.54 µM (active)

N#C[C@H]1N[C@H](CO)[C@H]1c1ccc(C#CC2CCCCC2)cc1
AC50 [24]: 12.9 µM (active)
